Results: patent US20080280933A1, “BENZIMIDAZOLYL COMPOUNDS” (priority 2006, published 2008)

Target: T1, mGluR2 receptor (metabotropic glutamate receptor 2) (Homo sapiens, UniProt Q14416)
T1 construct: expressed in transfected cells
Assay: mGluR2 Potentiator Screen, FLIPR, EC10-EC20 glutamate challenge
Type: cell-based
Details: mGluR2 potentiator screen, Table 7; read-out: EC50
Outline: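 HEK cells stably co-expressing mGluR2 and Gα15, kept glutamine-free overnight, were loaded with Fluo-4 plus probenecid and GPT/pyruvate. Compounds (top 10 μM) were added ≥30 min before an EC10–EC20 glutamate challenge. Peak FLIPR fluorescence ratios were curve-fitted, excluding points above maximal effect, with maxima from on-plate standards.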

T1 sequence (Q14416 19-872, species assumed): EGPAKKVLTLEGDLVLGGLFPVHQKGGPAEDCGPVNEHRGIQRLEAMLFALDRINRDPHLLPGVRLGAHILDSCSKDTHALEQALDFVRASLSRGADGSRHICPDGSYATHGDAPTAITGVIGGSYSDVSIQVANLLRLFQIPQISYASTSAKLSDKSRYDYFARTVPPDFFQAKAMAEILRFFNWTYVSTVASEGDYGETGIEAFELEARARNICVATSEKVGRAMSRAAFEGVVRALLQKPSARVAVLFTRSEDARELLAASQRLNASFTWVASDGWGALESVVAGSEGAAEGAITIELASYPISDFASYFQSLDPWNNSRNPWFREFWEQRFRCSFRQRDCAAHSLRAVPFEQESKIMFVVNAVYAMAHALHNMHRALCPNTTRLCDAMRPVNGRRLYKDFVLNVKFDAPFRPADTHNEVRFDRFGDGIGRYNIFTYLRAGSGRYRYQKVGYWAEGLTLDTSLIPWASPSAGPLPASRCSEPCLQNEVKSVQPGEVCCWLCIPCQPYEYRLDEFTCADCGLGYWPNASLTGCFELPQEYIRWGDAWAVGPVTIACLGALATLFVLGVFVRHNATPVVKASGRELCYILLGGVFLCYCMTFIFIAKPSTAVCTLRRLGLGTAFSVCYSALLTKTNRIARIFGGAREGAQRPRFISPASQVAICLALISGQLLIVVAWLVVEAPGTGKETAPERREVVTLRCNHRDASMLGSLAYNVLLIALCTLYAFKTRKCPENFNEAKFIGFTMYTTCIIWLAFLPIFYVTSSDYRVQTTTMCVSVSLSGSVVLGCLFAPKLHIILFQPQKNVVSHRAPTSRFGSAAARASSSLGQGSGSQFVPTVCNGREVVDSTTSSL

| EC50 | Molecule |
| --- | --- |
| 8.28 nM | Cn1c(CN2CCC(c3cc(Cl)ccc3F)CC2)nc2ccccc21 [compound 172] |
| 8760 nM | CC[C@H](C)COc1ccc(Cl)cc1C1CCN(Cc2nc3ccccc3n2CF)CC1 [compound 175] |
| 4130 nM | FCn1c(CN2CCC(c3cc(Cl)ccc3OCC3CCCO3)CC2)nc2ccccc21 (stereo not shown) [compound 208] |
| 1550 nM | CC1CC1COc1ccc(Cl)cc1C1CCN(Cc2nc3ccccc3n2CCF)CC1 (stereo not shown) [compound 200] |
| 371 nM | Cn1c(CN2CCC(c3ccccc3Cl)C2)nc2ccccc21 (stereo not shown) [compound 152] |
| 246 nM | CCCCOc1ccc(Cl)cc1C1CCN(Cc2nc3ccccc3n2CCF)CC1 [compound 186] |
| 3610 nM | FCn1c(CN2CCC(c3cc(Cl)ccc3OCC3CCOC3)CC2)nc2ccccc21 (stereo not shown) [compound 204] |
| 141 nM | FCCn1c(CN2CCC(c3cc(Cl)ccc3OCCC3CC3)CC2)nc2ccccc21 [compound 190] |
| 862 nM | Cn1c(CN2CCC(c3ccccc3Cl)CC2)nc2c(Br)cccc21 [compound 160] |
| 1230 nM | COc1ccccc1C1CCN(Cc2nc3c(Br)cccc3n2C)CC1 [compound 169] |

The next lines start with the molecule.

| Molecule | EC50 |
| --- | --- |
| Cn1c(CN2CCC(c3cccc4ccc(C(N)=O)cc34)CC2)nc2c(Br)cccc21 [compound 170] | 8090 nM |
| COc1ccc(OC)c(C2CCN(Cc3nc4ccccc4n3C)C2)c1 (stereo not shown) [compound 154] | 285 nM |
| Cn1c(CN2CCC(c3cc(Cl)ccc3OCC3CCOC3)CC2)nc2ccccc21 (stereo not shown) [compound 203] | 712 nM |
| CC1CC1COc1ccc(Cl)cc1C1CCN(Cc2nc3ccccc3n2CF)CC1 (stereo not shown) [compound 197] | 3260 nM |
| CC[C@H](C)COc1ccc(Cl)cc1C1CCN(Cc2nc3ccccc3n2C)CC1 [compound 174] | 447 nM |
| COCCn1c(CN2CCC(c3cc(Cl)ccc3OCC3CCC3)CC2)nc2ccccc21 [compound 196] | 719 nM |
| CCCOc1ccc(Cl)cc1C1CCN(Cc2nc3ccccc3n2C)CC1 [compound 220] | 216 nM |

Same assay, conditions: read-out: EC50

| EC50 | Molecule |
| --- | --- |
| 213 nM | COc1ccc(C2CCN(Cc3nc4ccccc4n3C)CC2)cc1 [compound 421] |
| 299 nM | Cn1c(CN2CCC(c3cc(F)cc(F)c3)CC2)nc2cc(F)ccc21 [compound 376] |
| 126 nM | Cn1c(CN2CCC(c3cc(F)cc(F)c3)CC2)nc2ccccc21 [compound 414] |
| 422 nM | Cn1c(CN2CCC(c3ccc(C(F)(F)F)cc3)CC2)nc2cc(F)c(F)cc21 [compound 260] |
| 21.1 nM | COc1ccccc1C1CCN(Cc2nc3c(F)cccc3n2C)CC1 [compound 271] |
| 146 nM | COc1ccccc1C1CCN(Cc2nc3ccccc3n2CCF)CC1 [compound 240] |
| 633 nM | Cn1c(CN2CCC(c3ccc(C(F)(F)F)cc3)CC2)nc2cccc(F)c21 [compound 341] |
| 301 nM | FCCn1c(CN2CCC(c3ccc(C(F)(F)F)cc3)CC2)nc2ccccc21 [compound 242] |
| 3300 nM | Cc1cccc(NC(=O)c2cccc(C3CCN(Cc4nc5ccccc5n4C)CC3)c2)n1 [compound 435] |
| 323 nM | COc1ccccc1[C@H]1CCN(Cc2nc3ccccc3n2C)C[C@H]1C (relative stereo) [compound 337] |
| 210 nM | CCOc1ccc(Cl)cc1C1CCN(Cc2nc3ccccc3n2CCF)CC1 [compound 227] |
| 2530 nM | 2-(2-((4-(2-fluorophenyl)piperidin-1-yl)methyl)-1-methyl-1H-benzo[d]imidazol-5-yl)propan-2-ol [Entry 298] |
| 1310 nM | COc1ccc(Cl)cc1C1CCN(Cc2nc3c(Br)cccc3n2C)CC1 [compound 234] |
| 74.1 nM | C#CCOc1ccc(Cl)cc1C1CCN(Cc2nc3ccccc3n2CCF)CC1 [compound 236] |
| 1040 nM | CCCCOc1ccccc1C1CCN(Cc2nc3ccccc3n2C)CC1 [compound 95] |
| 2120 nM | Cn1c(CN2CCC(c3ccccc3OC3CCOCC3)CC2)nc2ccccc21 [compound 99] |
| 545 nM | COCCn1c(CN2CCC(c3ccccc3C(F)(F)F)CC2)nc2ccccc21 [compound 250] |
| 88.2 nM | Cn1c(CN2CCC(c3ccc(Cl)c(F)c3)CC2)nc2cc(F)ccc21 [compound 454] |
| 1450 nM | COc1ccccc1[C@H]1CCN(Cc2nc3ccccc3n2C2CC2)C[C@H]1C (relative stereo) [compound 338] |
| 463 nM | Cn1c(CN2CCC(c3cc(C(F)(F)F)ccc3F)CC2)nc2cc(F)c(F)cc21 [compound 328] |
| 257 nM | Cn1c(CN2CCC(F)(c3ccc(Cl)cc3)CC2)nc2ccccc21 [compound 432] |
| 45.6 nM | Cn1c(CN2CCC(c3ccc(F)c(Cl)c3)CC2)nc2cc(F)ccc21 [compound 447] |
| 3350 nM | COc1ccccc1C1CCN(Cc2nc3c(C#N)cccc3n2C)CC1 [compound 266] |
| 164 nM | FCn1c(CN2CCC(c3ccc(C(F)(F)F)cc3)CC2)nc2ccccc21 [compound 255] |
| < 40.2 nM | Cn1c(CN2CCC(c3ccc(C(F)(F)F)cc3F)CC2)nc2cc(F)ccc21 [compound 353] |
| 79.7 nM | Cc1ccc2c(c1)nc(CN1CCC(c3ccccc3F)CC1)n2C [compound 273] |
| 147 nM | Cn1c(CN2CCC(c3ccc(C(F)(F)F)cc3)CC2)nc2cc(F)ccc21 [compound 350] |
| 320 nM | COCCn1c(CN2CCC(c3ccccc3OC)CC2)nc2ccccc21 [compound 248] |
| 1650 nM | COc1ccc(C(F)(F)F)cc1C1CCN(Cc2nc3ccccc3n2CCF)CC1 [compound 319] |
| 189 nM | Cn1c(CN2CCC(c3cc(F)cc(F)c3)CC2)nc2ccccc21 [compound 415] |

Second part, the molecule before the results:

| Molecule | EC50 |
| --- | --- |
| Cn1c(CN2CCC3(CC2)CN(C(=O)c2cccc(C#N)c2)c2ccccc23)nc2ccccc21 [compound 55] | 3010 nM |
| CC(C)Oc1ccccc1C1CCN(Cc2nc3cc(F)ccc3n2C)CC1 [compound 371] | 692 nM |
| Cc1ccc2c(c1)C1(CCN(Cc3nc4ccccc4n3C)CC1)CN2CC(C)C [compound 119] | 2900 nM |
| Cc1ccc2c(c1)C1(CCN(Cc3nc4ccccc4n3C)CC1)CN2C(=O)C1CC1 [compound 36] | 2330 nM |
| Cn1c(CN2CCC(c3cccc(F)c3F)CC2)nc2ccccc21 [compound 452] | 20.2 nM |
| OCCn1c(CN2CCC(c3ccccc3F)CC2)nc2ccccc21 [compound 295] | 1740 nM |
| CCOC(=O)CCC(=O)N1CC2(CCN(Cc3nc4ccccc4n3C)CC2)c2cc(Cl)ccc21 [compound 41] | 1630 nM |
| CC1CN(CCOc2ccccc2C2CCN(Cc3nc4ccccc4n3C)CC2)CC(C)O1 (stereo not shown) [compound 85] | 1370 nM |
| Cn1c(CN2CCC3(CC2)CN(C(=O)C2CC2)c2ccc(Cl)cc23)nc2ccccc21 [compound 45] | 1120 nM |
| Cn1c(CN2CCC3(CC2)CN(C(=O)c2ccc4nccnc4c2)c2ccccc23)nc2ccccc21 [compound 48] | > 6630 nM |
| CCOc1ccccc1C1CCN(Cc2nc3ccccc3n2C)CC1 [compound 100] | 2910 nM |
| Cn1c(CN2CCC3(CC2)CN(C(=O)c2ccc(C#N)cc2)c2ccccc23)nc2ccccc21 [compound 56] | 1750 nM |
| CCN1CC2(CCN(Cc3nc4ccccc4n3C)CC2)c2ccccc21 [compound 110] | 4980 nM |
| CC(C)Oc1ccccc1C1CCN(Cc2nc3cc(Cl)ccc3n2C)CC1 [compound 379] | 1570 nM |
| Cn1c(CN2CCC(c3ccccc3F)CC2)nc2cccc(F)c21 [compound 344] | 20.6 nM |
| CCC(CC)CN1CC2(CCN(Cc3nc4ccccc4n3C)CC2)c2cc(C)cc(C)c21 [compound 126] | 6010 nM |
| COC(=O)c1cccc([C@]2(C)CCN(Cc3nc4ccccc4n3C)C[C@@H]2C)c1 [compound 81] | 6080 nM |
| Cn1c(CN2CCC(c3ccc(C(F)(F)F)cc3)CCC2=O)nc2ccccc21 (stereo not shown) [compound 290] | 5720 nM |
| COC(=O)CCCC(=O)N1CC2(CCN(Cc3nc4ccccc4n3C)CC2)c2cc(C)ccc21 [compound 32] | 1850 nM |

| Molecule | EC50 |
| --- | --- |
| Cn1c(CN2CCC3(CC2)CN(CC2CCCO2)c2ccc(Cl)cc23)nc2ccccc21 (stereo not shown) [compound 107] | 6650 nM |
| CC(O)c1ccccc1C1CCN(Cc2nc3ccccc3n2C)CC1 (stereo not shown) [compound 313] | 361 nM |
| Cn1c(CN2CCC(O)(c3ccc(Cl)c(C(F)(F)F)c3)CC2)nc2ccccc21 [compound 71] | 4350 nM |
| COCCn1c(CN2CCC(c3cc(C(F)(F)F)ccc3OC)CC2)nc2ccccc21 [compound 323] | 984 nM |
| Cn1c(CN2CCC3(CC2)CN(C(=O)c2ccoc2)c2ccccc23)nc2ccccc21 [compound 50] | 4930 nM |
| COc1cccc(C2CCN(Cc3nc4ccccc4n3C)CC2)c1 [compound 65] | 241 nM |
| CCC(=O)N1CC2(CCN(Cc3nc4ccccc4n3C)CC2)c2cc(Cl)ccc21 [compound 27] | 1060 nM |
| COc1cccc(C2CCN(Cc3nc4cc(Cl)ccc4n3C)CC2)c1 [compound 385] | 2760 nM |
| COc1cccc2c1CCCC21CCN(Cc2nc3ccccc3n2C)CC1 [compound 69] | > 6970 nM |
| Cn1c(CN2CC[C@@H]3c4ccccc4OC[C@H]3C2)nc2ccccc21 [compound 470] | 1520 nM |
| COc1cc(C2CCN(Cc3nc4ccccc4n3C)CC2)ccc1F [compound 425] | 434 nM |
| C[C@@H]1CN(Cc2nc3ccccc3n2C)CC[C@@H]1c1ccc(C(F)(F)F)cc1C(F)(F)F (relative stereo) [compound 466] | 161 nM |
| Cc1ccc2c(c1)C1(CCN(Cc3nc4ccccc4n3C)CC1)CN2C [compound 146] | 1670 nM |
| Cc1cc(Cl)ccc1[C@H]1CCN(Cc2nc3ccccc3n2C)C[C@H]1C (relative stereo) [compound 469] | > 351 nM |
| Cn1c(CN2CCC(O)(c3cc(Br)cc(Br)c3)CC2)nc2ccccc21 [compound 68] | 1240 nM |
| CCN1CC2(CCN(Cc3nc4ccccc4n3C)CC2)c2cc(C)ccc21 [compound 118] | 3410 nM |
| Cn1c(CN2CCC3(CC2)COc2ccccc23)nc2ccccc21 [compound 262] | 1170 nM |
| CC(C)Oc1ccc(C2CCN(Cc3nc4ccccc4n3C)CC2)cc1 [compound 412] | 105 nM |
| Cc1cccc2c1nc(CN1CCC(c3ccccc3F)CC1)n2C [compound 267] | 249 nM |
